Reference: article PMC2941486 (Journal of Biomedical Science, 2010)
Marks after values point to notes of the source that are not given here. One block for each compound: values may come before it. Square brackets hold non-standard residues; d marks the D form. Peptide text beside a SMILES is read from it. Dopa = N[C@@H](Cc1ccc(O)c(O)c1)C(=O)O; dPhg = N[C@@H](C(=O)O)c1ccccc1

Columns and labels:
[1] = target: T1, intestinal peptide transporter I (PepT1) (Rattus norvegicus, UniProt P51574); assay: BBMV uptake of d-phenylglycine-l-dopa with or without competitors; format: in vitro ADME; settings: pH 7.4, room temperature
T1 construct: brush-boarder membrane vesicle (BBMV) prepared from rat intestine; from tissue; host or cells: rat intestine, brush-border membrane vesicles made by magnesium precipitation
T1 sequence (P51574 1-710): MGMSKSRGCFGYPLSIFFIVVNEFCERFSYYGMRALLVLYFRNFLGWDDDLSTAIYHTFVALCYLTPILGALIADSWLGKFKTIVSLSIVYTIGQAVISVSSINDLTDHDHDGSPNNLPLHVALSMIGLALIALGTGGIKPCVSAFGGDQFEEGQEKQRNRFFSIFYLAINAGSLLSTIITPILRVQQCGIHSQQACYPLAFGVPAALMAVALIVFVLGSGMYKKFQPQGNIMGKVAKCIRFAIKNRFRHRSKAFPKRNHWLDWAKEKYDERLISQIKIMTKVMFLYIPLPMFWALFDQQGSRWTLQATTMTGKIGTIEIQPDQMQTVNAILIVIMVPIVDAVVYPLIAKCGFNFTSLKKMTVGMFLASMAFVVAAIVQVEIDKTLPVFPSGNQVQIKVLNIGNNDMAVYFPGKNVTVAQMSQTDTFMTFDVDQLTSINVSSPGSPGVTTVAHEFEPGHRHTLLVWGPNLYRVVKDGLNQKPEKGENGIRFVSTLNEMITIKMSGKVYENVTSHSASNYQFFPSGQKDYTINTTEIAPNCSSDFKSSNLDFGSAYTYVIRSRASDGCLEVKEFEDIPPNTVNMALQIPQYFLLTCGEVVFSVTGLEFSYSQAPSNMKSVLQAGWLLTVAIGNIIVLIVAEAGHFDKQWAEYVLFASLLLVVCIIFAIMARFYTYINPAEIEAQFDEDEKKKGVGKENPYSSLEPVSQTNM

[2] = Stability in rat intestinal mucosa suspension; format: in vitro ADME; settings: pH 6.5 isotonic buffer, 37°C
Method: Mucosa suspension was prepared from the intestine of male Wistar rats according to established method and was stored in an ice bath before use.
The stability of d-phenylglycine-l-dopa in the intestine was determined prior to the intestinal absorption studies. In order to simulate intestinal microclimate pH, the compound was incubated with the intestinal mucosal suspension in a pH 6.5 isotonic buffer solution. l-Gly-l-Phe comprising essential amino acids degraded rapidly with only 50% of recovery after 2 min of incubation. d-Phenylglycine-l-dopa, on the other hand, was very stable with almost 100% of recovery after 90 min of incubation (Figure 3).
Figure 3 Comparison of the stability of d-phenylglycine-l-dopa and l-Gly-l-Phe in rat intestinal mucosa suspension. Each point represents mean ± SE. of 3 experiments. A methanolic solution (100 μl) of the test compound (1 mg/ml) was diluted with an isotonic mannitol buffer solution (pH 6.5, 2.4 ml) as the stock solution. This stock solution (1 ml) was mixed with the freshly prepared mucosal suspension (1 ml). The mixture was incubated in a water bath at 37°C and subjected to sampling at intervals between zero to 90 min of incubation. Each sampled solution (200 μl) was denatured with 0.8 ml of MeOH and centrifuged at 6,600 g for 5 min. Each of the supernatant (20 - 100 μl) was subjected to HPLC assay.

[3] = Pharmacokinetics after i.v. and oral administration; format: in vivo, Wistar rats; settings: for AUC / half-life / clearance / Vd / Tmax: Wistar, rat, plasma, 5.97 mg/kg; for clearance: read-out: Clp; for Vd: read-out: Vdss; for Fraction of absorption (BA): oral vs i.v., Equation 1, rats
Method: Rats were fasted for at least 18 h prior to drug administration. Anaesthesia was induced by i.p. injection of urethane (0.15 g/100 g body weight). The rats were put under a heating lamp to maintain body temperature.
The HPLC system used in the assay of biological samples consisted of an autosampler (AS950, Jasco, Tokyo, Japan), a Waters Model 600E solvent delivery pump (Millipore, Milford, MA, USA), a Model LC-4C electrochemical detector with a glassy-carbon electrode (Bioanalytical Systems, Inc., West Lafayette, IN, USA), and an integrator (Macintosh LC II with Macintegrator I). A Nucleosil® 10 SA cationic ion-exchange column (10 μm, 300 × 4.0 mm, Macherey-Nagel, Düren, Germany) with a mobile phase comprising NaCl (50 mM) and Na2-EDTA (1.0 mM) in 0.1 M ammonium phosphate buffer (pH 2.0) at a flow rate of 2.0 ml/min was used for the elution of the samples. […] HPLC assay methods were validated by determining the precision and accuracy of intra-day and inter-day analysis of serum standards over a period of 6 days. The coefficients of variation for inter- and intraday assays were less than 15% for both compounds (n = 6).
According to the literature, the area under the plasma concentration-time profile (AUC) was calculated by log-linear trapezoidal rule. Plasma concentration after i.v. administration of drugs were also fitted to a […] model using PCNONLIN and Akeike's Information Criteria, sum of squared residuals, residual plot and correlation coefficient were use for determination of the compartment model. The residual area after the last observed data point was calculated as Clast/k, where Clast is the last observed concentration, and k is the corresponding terminal rate constant. Terminal half-life (t1/2) was estimated compartment model-independently. The fraction of absorption was calculated according to Equation 1.
(1) BA=AUCoral⋅koral/doseoral/AUCiv⋅kiv/doseiv×100%
Blood samples were collected from the carotid artery at time intervals of from 1 to 180 min. Heparin sodium (25 I.U./ml in 0.3 ml of saline) was added to blood samples, and were then centrifuged at 6,600 g for 5 min. Plasma was stored at -78°C until being analyzed. A 200 μl of the plasma sample in a 10 ml test tube was mixed with 500 μl of 1.0 M Tris buffer (pH 8.6, adjusted by EDTA-2Na^+) and 10 μl of 3,4-dihydroxybenzylamine (DHBA, 2 μg/ml) was added as internal standard. Alumina 100 mg was then added and then shake for 15 sec and the supernatant was decanted. The alumina was washed four times with 5 ml of water, and the adsorbed compounds on the alumina was eluted with 200 μl of an acidic solution (0.9 ml of glacial acetic acid in 4.0 ml of 1.0 M phosphate buffer). A 30 μl of the eluent was then analyzed by HPLC.

[4] = system: 6-OHDA-treated unilateral striatal-lesioned rats; settings: 10 mg/kg
[5] = In situ single-pass jejunal perfusion; format: in vivo, rat; settings: for Blood concentration: steady-state plasma concentration after jejunal perfusion, l-dopa detected in only one of three rats
Method: Literature procedure was followed for the preparation of perfusion solutions and the jejunal segments. To maximize the absorption and to prevent the test compounds from being oxidized during perfusion, the experiments were performed at pH 6.0 with 0.02% (w/v) ascorbic acid added as antioxidant and nitrogen gas was bubbled through for 10 min before each experiment. Perfusion solution was pumped through the jejunal segment at a flow rate of 0.2 ml/min by a syringe pump (Stoelting, KD Scientific, U.S.A.). The jejunal segment was pre-washed with drug-free buffer for 10 min before the drug solution was pumped in. Outlet tubing samples were collected every 10 min for 6 collection periods after water and solute transport reached steady-state. The dimensionless membrane permeability Pm* [28] was measured as indications for the disappearance rate of test compound from the intestine. Plasma samples were withdrawn from carotid artery.
The absorption of d-phenylglycine-l-dopa and l-dopa was compared in rats by in situ single-pass jejunal perfusion experiments. Amidon's dimensionless cross-membrane permeability (Pm*) was determined as a parameter of intestinal absorption. The steady-state plasma concentration was also determined (Table 1).

[6] = system: striatal dopamine; assay: Brain microdialysis of striatal dopamine after i.v. injection; format: in vivo, Sprague-Dawley rats; settings: after i.v. injection 50 mg/kg
Method: Single dose d-phenylglycine-l-dopa (50 mg/kg in 2.5 mL of normal saline) was administered i. v. via femoral vein to anesthetized male Sprague-Dawley rats (280 - 320 g). The body temperature of the rats was maintained at 37°C with a heating pad throughout the experiment. The rat was immobilized in a stereotaxic frame (David Kopf Instruments, Tujunga, CA, USA), the skull was surgically exposed, and a hole was drilled with a trephine into the skull based on stereotaxic coordinates. The brain microdialysis system consisted of a CMA/100 microinjection pump (CMA, Stockholm, Sweden) and a microdialysis probe. The dialysis probes (3 mm in length) were made of silica capillary in a concentric design with their tips covered by dialysis membrane (Spectrum, 150 μm outer diameter with a cut-off at nominal molecular mass of 13000, Laguna Hills, CA, USA). The probe was placed into right striatum (0.2 mm anterior to bregma and 3.2 mm lateral to midline) and perfused with Ringer's solution (147 mM Na+; 2.2 mM Ca++; 4 mM K+; pH 7.0) at a flow-rate of 1 μl min^-1. The position of each probe was verified at the end of experiments. The dialysates was collected at 10 min intervals and aliquots of 10 μl was assayed by microbore HPLC. […]

[7] = oral, dose equivalent to 5.97 mg/kg l-dopa, rats

SMILES: NCC(=O)N[C@@H](Cc1ccccc1)C(=O)O [l-Gly-l-Phe, reference compound] (H-Gly-Phe-OH)
- Inhibition of BBMV uptake of d-phenylglycine-l-dopa by added competitor [1]: significantly inhibited
- Recovery after incubation with intestinal mucosal suspension ([2]; 2 min of incubation): 50%

SMILES: N[C@@H](C(=O)N[C@@H](Cc1ccc(O)c(O)c1)C(=O)O)c1ccccc1 [d-phenylglycine-l-dopa] (H-[dPhg]-[Dopa]-OH)
- Time at which striatal dopamine had not reached plateau [6]: > 3.5 h
- Striatal dopamine level ([6]; anesthetized rats, dialysates at 10 min intervals): increased gradually
- recovery at 90 min, 0.02 mg/ml ([2]; male, Wistar, rat, intestinal mucosa suspension, 90 min of incubation, read-out: Recovery after incubation with intestinal mucosal suspension): ~100%
- AUC ([3]; iv): 1040 ng·h/mL
- half-life ([3]; iv): 4.23 ± 1.22 h
- clearance ([3]; iv): 180 ± 60 mL/min/kg
- Vd ([3]; iv): 11 ± 5.08 L/kg
- AUC ([3]; po): 481 ng·h/mL
- Tmax ([3]; po): 0.638 h
- half-life ([3]; po): 2.38 ± 0.395 h
- Systemic bioavailability (AUC), times lower than that of l-dopa ([3]; i.v., rats): 7 times
- Fraction of absorption (BA) [3]: 27.58 ± 4.56%
- Clp [3, 7]: 290 ± 100 mL/min/kg
- Vdss [3, 7]: 35.7 ± 17.1 L/kg
- Fraction of oral absorption, fold higher than that of l-dopa ([3]; rats, oral): 31 fold
- Oral bioavailability, times higher than that of l-dopa ([3]; rats, oral): 31.7 times
- Steady-state plasma concentration after perfusion, molar ratio, higher than that of l-dopa ([5]; jejunal perfusion, rats): 31.1 fold
- Blood concentration [5]: 64.6 ± 5.40 µg/mL
- Molar ratio of blood concentration ([5]; steady-state, jejunal perfusion): 31.1

SMILES: NCC(=O)N1CCC[C@H]1C(=O)O [l-Gly-l-Pro] (H-Gly-Pro-OH)
- Inhibition of BBMV uptake of d-phenylglycine-l-dopa by added competitor [1]: significantly inhibited

SMILES: CC1=C(C(=O)O)N2C(=O)[C@@H](NC(=O)[C@H](N)C3=CCC=CC3)[C@H]2SC1 [cephradine]
- Inhibition of BBMV uptake of d-phenylglycine-l-dopa by added competitor [1]: significantly inhibited

Now from value to compound, other results behind:

- AUC ([3]; iv): 7660 ng·h/mL
- half-life ([3]; iv): 1.69 ± 0.462 h
- clearance ([3]; iv): 20 ± 20 mL/min/kg
- Vd ([3]; iv): 1.22 ± 0.89 L/kg
- AUC ([3]; po): 456 ng·h/mL
- Tmax ([3]; po): 0.417 h
- half-life ([3]; po): 3.08 ± 0.77 h
- Fraction of absorption (BA) [3]: 0.87 ± 0.24%
- Clp [3, 7]: 10 ± 0 mL/min/kg
- Blood concentration [5]: 1.24^a μg/ml
SMILES: N[C@@H](Cc1ccc(O)c(O)c1)C(=O)O [l-dopa, reference compound]
- Reduction in rotation (mean ± SE %) [4]: 9.9 ± 1.4%

- Inhibition of BBMV uptake of d-phenylglycine-l-dopa by added competitor [1]: less inhibited
SMILES: N[C@@H](Cc1ccccc1)C(=O)O [l-Phe]
